Measurements taken from patent US20130345058A1, “USE OF LIPOCHITO-OLIGOSACCHARIDE COMPOUNDS FOR SAFEGUARDING SEED SAFETY OF TREATED SEEDS” (priority 2011, published 2013).

What was measured:
Assay type in all cases: in vivo
Wheat kernels = experiment: Germination rate of wheat in combination with fungicides (greenhouse); settings: fungicides 25 g/dt in NMP, compound A1 0.1 mg/ha, soil, greenhouse 15° C., 70% humidity, 7 days, solvent control 69
Procedure: The test is performed under greenhouse conditions.
Wheat kernels were treated with different fungicides (25 g/dt in NMP) or a mixture of compound A1 (0.1 mg/ha in 1:1, acetonitril/water) with the fungicides. Kernels were planted in soil and grown in the greenhouse at 15° C., 70% humidity, 14 h day/light cycle for 7 days.
Controls are performed in the same conditions in the absence of active ingredients. Assessment consisted of counting seedlings per treatment.

maize = experiment: Germination rate of maize in combination with insecticides (greenhouse); settings: clothianidin 1.25, imidacloprid 0.75 mg ai/corn, compound A1 1 mg/ha, greenhouse 10° C., 80% humidity, 9 days, solvent control 17
Procedure: (§1) The test was performed under greenhouse conditions. Kernels were treated with different insecticides (ready formulated) or a mixture of compound A1 (1 mg/ha in 1:1, acetonitril/water) with the insecticides. Kernels were planted in soil and grown in the greenhouse at 20° C., 80% humidity, 12 h day/light cycle for 4 days (wheat) and at 10° C., 80% humidity, 12 h day/light cycle for 9 days (maize). Controls are performed in the same conditions in the absence of active ingredients. Assessment consisted of counting seedlings per treatment.

wheat = experiment: Germination rate of wheat in combination with insecticides (greenhouse); settings: thiacloprid 1.00 mg ai/corn, compound A1 1 mg/ha, greenhouse 20° C., 80% humidity, 4 days, solvent control 64
Procedure: as §1

Cc1nn(C)c(F)c1C(=O)Nc1ccccc1C(C)CC(C)C (stereo not drawn) [Penflufen]
% germination (Wheat kernels): 47%

CN/C(=N\[N+](=O)[O-])NCc1cnc(Cl)s1 [clothianidin]
germination % maize 9 d (maize): 8%

N#Cc1c[nH]cc1-c1cccc2c1OC(F)(F)O2 [fludioxonil]
% germination (Wheat kernels): 23%

CO/N=C(/C1=NOCCO1)c1ccccc1Oc1ncnc(Oc2ccccc2Cl)c1F [fluoxastrobin]
% germination (Wheat kernels): 4%

CC(C)(C)C(O)(CCc1ccc(Cl)cc1)Cn1cncn1 (stereo not drawn) [tebuconazole]
% germination (Wheat kernels): 21%

N#C/N=C1\SCCN1Cc1ccc(Cl)nc1 [thiacloprid]
germination % wheat 4 d (wheat): 9%
